Measurements reported in patent US20250250282A1, “NOVEL SEVEN-MEMBERED RING-FUSED COMPOUNDS” (PRISM Biolab Co., Ltd., priority 2022, published 2025).

Tested on: CellSensor T-REx NICD CSL-bla HeLa cell line (Notch response element driving beta-lactamase reporter)
Assay: Notch assay (CSL-bla beta-lactamase reporter, DOX-inducible NICD)
Format: cell-based
Details: Homo sapiens; 10 μM compound; HeLa/T-REx NICD CSL-bla cells, doxycycline-induced, 16-20 hours incubation; blue/green emission ratio
Method: We used the CellSensor T-REx™ NICD CSL-bla HeLa cell line, which was engineered by lentiviral transduction of HeLa cells with a Notch response element driving beta-lactamase reporter gene expression (CSL-bla) along with DOX (doxycycline)-inducible NICD (Notch intracellular domain) constructs. Addition of DOX to these cells allows for regulated NICD transcription factor expression and subsequent beta-lactamase expression.
Specifically, the following protocol was used.
• 1. Plate Cells: 32 μL/well of HeLa/T-REx™ NICD CSL-bla cells at 10^3 cells/well complete medium into 384-well plate. • 2. Prepare 10× compounds in assay medium. • 3. Add 4 μL compounds or 1% DMSO in assay medium to the cells. • 4. Add 4 μL 10× Doxycycline in Assay Medium to the treated wells, and 4 μL Assay Medium to the Untreated and cell free control wells. • 5. Incubate the assay plate in a humidified 37° C./5% CO2 incubator for 16-20 hours. • 6. Preparation of 6× LiveBLAzer™-FRET B/G Substrate (CCF4-AM) Mixture according to the manual and cell loading should be done in the absence of direct strong lighting. • 7. Remove assay plate from the humidified 37° C./5% CO2 incubator. Add 8 μl of 6× Substrate Mixture from […] to each well. Cover the plate to protect it from light and evaporation. Incubate at room temperature for 4 hours. • 8. Reading an Assay Plate using the following filter selections:
• 9. Data analysis: Use the assay plate layout to identify the location of the Cell-free wells. These control wells are used for background subtraction. Determine the average emission from the Cell-free wells at both 460 nm (Average Blue Background) and 530 nm (Average Green Background). Subtract the Average Blue Background (data collected at 460 nm) from all of the blue emission data. Subtract the Average Green background (data collected at 530 nm) from all of the green emission data. Calculate the Blue/Green Emission Ratio for each well, by dividing the background-subtracted blue emission values by the background-subtracted green emission values.

SMILES | inhibition at 10 µM
CC(C)CCN1CC2N(C[C@@H](CC(C)C)C1=O)C(=O)c1sccc1N2C(=O)NCc1cccc2ccccc12 (stereo partly drawn) [ID-25, (8R)-8-isobutyl-6-isopentyl-N-(naphthalen-1-ylmethyl)-7,11-dioxo-4a,5,6,7,8,9-hexahydrothieno[3′,2′:4,5]pyrimido[1,2-a][1,4]diazepine-4(11H)-carboxamide] | 52.8%
CC(C)[C@@H]1CN2C(=O)CCN(C(=O)NCCC(c3ccccc3)c3ccccc3)C2CN(Cc2ccc3ccccc3c2)C1=O (stereo partly drawn) [ID-14, (7R)—N-(3,3-diphenylpropyl)-7-isopropyl-9-(naphthalen-2-ylmethyl)-4,8-dioxooctahydropyrimido[1,2-a][1,4]diazepine-1(2H)-carboxamide] | 62.4%
CC(C)CCN1CC2N(C[C@@H](Cc3ccc(O)cc3)C1=O)C(=O)CCN2C(=O)NCCC(c1ccccc1)c1ccccc1 (stereo partly drawn) [ID-05, (7R)—N-(3,3-diphenylpropyl)-7-(4-hydroxybenzyl)-9-isopentyl-4,8-dioxooctahydropyrimido[1,2-a][1,4]diazepine-1(2H)-carboxamide] | 51.5%
O=C1[C@H](Cc2ccc(O)cc2)CN2C(=O)c3sccc3N(C(=O)NCc3cccc4ccccc34)C2CN1CC1CCCCC1 (stereo partly drawn) [ID-27, (8R)-6-(cyclohexylmethyl)-8-(4-hydroxybenzyl)-N-(naphthalen-1-ylmethyl)-7,11-dioxo-4a,5,6,7,8,9-hexahydrothieno[3′,2′:4,5]pyrimido[1,2-a][1,4]diazepine-4(11H)-carboxamide] | 54.4%
CC(C)[C@@H]1CN2C(=O)CCN(C(=O)NCc3ccccc3)C2CN(Cc2ccc3ccccc3c2)C1=O (stereo partly drawn) [ID-01, (7R)—N-benzyl-7-isopropyl-9-(naphthalen-2-ylmethyl)-4,8-dioxooctahydropyrimido[1,2-a][1,4]diazepine-1(2H)-carboxamide] | 54.7%
CC(C)[C@@H]1CN2C(=O)c3sccc3N(C(=O)NCc3cccs3)C2CN(Cc2ccc3ccccc3c2)C1=O (stereo partly drawn) [ID-35, (8R)-8-isopropyl-6-(naphthalen-2-ylmethyl)-7,11-dioxo-N-(thiophen-2-ylmethyl)-4a,5,6,7,8,9-hexahydrothieno[3′,2′:4,5]pyrimido[1,2-a][1,4]diazepine-4(11H)-carboxamide] | 54.9%
CCCCN1CC2N(C[C@@H](Cc3ccc(O)cc3)C1=O)C(=O)c1sccc1N2C(=O)NCc1ccc2c(c1)OCO2 (stereo partly drawn) [ID-32, (8R)—N-(benzo[d][1,3]dioxol-5-ylmethyl)-6-butyl-8-(4-hydroxybenzyl)-7,11-dioxo-4a,5,6,7,8,9-hexahydrothieno[3′,2′:4,5]pyrimido[1,2-a][1,4]diazepine-4(11H)-carboxamide] | 52.5%
CC(C)CCN1CC2N(C[C@@H](Cc3ccc(O)cc3)C1=O)C(=O)c1sccc1N2C(=O)NCc1ccc2c(c1)OCO2 (stereo partly drawn) [ID-33, (8R)—N-(benzo[d][1,3]dioxol-5-ylmethyl)-8-(4-hydroxybenzyl)-6-isopentyl-7,11-dioxo-4a,5,6,7,8,9-hexahydrothieno[3′,2′:4,5]pyrimido[1,2-a][1,4]diazepine-4(11H)-carboxamide] | 68.2%
O=C1[C@H](Cc2ccccc2)CN2C(=O)c3sccc3N(C(=O)NCCc3ccccc3)C2CN1Cc1cccc2cccnc12 (stereo partly drawn) [ID-23, (8R)-8-benzyl-7,11-dioxo-N-phenethyl-6-(quinolin-8-ylmethyl)-4a,5,6,7,8,9-hexahydrothieno[3′,2′:4,5]pyrimido[1,2-a][1,4]diazepine-4(11H)-carboxamide] | 54.6%
CCCCN1CC2N(C[C@@H](CC(C)C)C1=O)C(=O)c1sccc1N2C(=O)NCc1cccc2ccccc12 (stereo partly drawn) [ID-24, (8R)-6-butyl-8-isobutyl-N-(naphthalen-1-ylmethyl)-7,11-dioxo-4a,5,6,7,8,9-hexahydrothieno[3′,2′:4,5]pyrimido[1,2-a][1,4]diazepine-4(11H)-carboxamide] | 51.1%
O=C1[C@H](Cc2ccc(O)cc2)CN2C(=O)CCN(C(=O)NCCC(c3ccccc3)c3ccccc3)C2CN1Cc1cccc2cccnc12 (stereo partly drawn) [ID-13, (7R)—N-(3,3-diphenylpropyl)-7-(4-hydroxybenzyl)-4,8-dioxo-9-(quinolin-8-ylmethyl)octahydropyrimido[1,2-a][1,4]diazepine-1(2H)-carboxamide] | 53.7%
CC(C)[C@@H]1CN2C(=O)c3sccc3N(C(=O)NCc3ccccc3)C2CN(Cc2ccc3ccccc3c2)C1=O (stereo partly drawn) [ID-20, (8R)—N-benzyl-8-isopropyl-6-(naphthalen-2-ylmethyl)-7,11-dioxo-4a,5,6,7,8,9-hexahydrothieno[3′,2′:4,5]pyrimido[1,2-a][1,4]diazepine-4(11H)-carboxamide] | 56.8%
CC(C)CCN1CC2N(C[C@@H](Cc3ccccc3)C1=O)C(=O)CCN2C(=O)NCCC(c1ccccc1)c1ccccc1 (stereo partly drawn) [ID-06, (7R)-7-benzyl-N-(3,3-diphenylpropyl)-9-isopentyl-4,8-dioxooctahydropyrimido[1,2-a][1,4]diazepine-1(2H)-carboxamide] | 51.8%
CCCCN1CC2N(C[C@@H](Cc3ccc(O)cc3)C1=O)C(=O)c1sccc1N2C(=O)NCc1ccc(C)cc1 (stereo partly drawn) [ID-36, (8R)-6-butyl-8-(4-hydroxybenzyl)-N-(4-methylbenzyl)-7,11-dioxo-4a,5,6,7,8,9-hexahydrothieno[3′,2′:4,5]pyrimido[1,2-a][1,4]diazepine-4(11H)-carboxamide] | 55.9%
C[C@@H]1CN2C(=O)c3sccc3N(C(=O)NCCC(c3ccccc3)c3ccccc3)C2CN(Cc2ccc3ccccc3c2)C1=O (stereo partly drawn) [ID-29, (8R)—N-(3,3-diphenylpropyl)-8-methyl-6-(naphthalen-2-ylmethyl)-7,11-dioxo-4a,5,6,7,8,9-hexahydrothieno[3′,2′:4,5]pyrimido[1,2-a][1,4]diazepine-4(11H)-carboxamide] | 56.7%
O=C1[C@H](Cc2ccccc2)CN2C(=O)CCN(C(=O)NCCC(c3ccccc3)c3ccccc3)C2CN1CC1CCCCC1 (stereo partly drawn) [ID-07, (7R)-7-benzyl-9-(cyclohexylmethyl)-N-(3,3-diphenylpropyl)-4,8-dioxooctahydropyrimido[1,2-a][1,4]diazepine-1(2H)-carboxamide] | 54.7%
CC(C)[C@@H]1CN2C(=O)CCN(C(=O)NCCC(c3ccccc3)c3ccccc3)C2CN(CCc2ccccc2)C1=O (stereo partly drawn) [ID-09, (7R)—N-(3,3-diphenylpropyl)-7-isopropyl-4,8-dioxo-9-phenethyloctahydropyrimido[1,2-a][1,4]diazepine-1(2H)-carboxamide] | 54.1%
Cc1ccc(CNC(=O)N2c3ccsc3C(=O)N3C[C@@H](Cc4ccc(O)cc4)C(=O)N(CCC(C)C)CC32)cc1 (stereo partly drawn) [ID-37, (8R)-8-(4-hydroxybenzyl)-6-isopentyl-N-(4-methylbenzyl)-7,11-dioxo-4a,5,6,7,8,9-hexahydrothieno[3′,2′:4,5]pyrimido[1,2-a][1,4]diazepine-4(11H)-carboxamide] | 66.3%
O=C1[C@H](Cc2ccccc2)CN2C(=O)CCN(C(=O)NCCC(c3ccccc3)c3ccccc3)C2CN1CCc1ccccc1 (stereo partly drawn) [ID-12, (7R)-7-benzyl-N-(3,3-diphenylpropyl)-4,8-dioxo-9-phenethyloctahydropyrimido[1,2-a][1,4]diazepine-1(2H)-carboxamide] | 51.7%
CC(C)CCN1CC2N(C[C@@H](Cc3ccccc3)C1=O)C(=O)c1sccc1N2C(=O)NCc1ccc2c(c1)OCO2 (stereo partly drawn) [ID-34, (8R)—N-(benzo[d][1,3]dioxol-5-ylmethyl)-8-benzyl-6-isopentyl-7,11-dioxo-4a,5,6,7,8,9-hexahydrothieno[3′,2′:4,5]pyrimido[1,2-a][1,4]diazepine-4(11H)-carboxamide] | 52.4%
O=C1[C@H](Cc2ccc(O)cc2)CN2C(=O)c3sccc3N(C(=O)NCCc3ccccc3)C2CN1Cc1cccc2ccccc12 (stereo partly drawn) [ID-22, (8R)-8-(4-hydroxybenzyl)-6-(naphthalen-1-ylmethyl)-7,11-dioxo-N-phenethyl-4a,5,6,7,8,9-hexahydrothieno[3′,2′:4,5]pyrimido[1,2-a][1,4]diazepine-4(11H)-carboxamide] | 56.2%
O=C1[C@H](Cc2ccc(O)cc2)CN2C(=O)c3sccc3N(C(=O)NCC3CCCCC3)C2CN1Cc1cccc2cccnc12 (stereo partly drawn) [ID-30, (8R)—N-(cyclohexylmethyl)-8-(4-hydroxybenzyl)-7,11-dioxo-6-(quinolin-8-ylmethyl)-4a,5,6,7,8,9-hexahydrothieno[3′,2′:4,5]pyrimido[1,2-a][1,4]diazepine-4(11H)-carboxamide] | 61.2%
O=C1[C@H](Cc2ccccc2)CN2C(=O)CCN(C(=O)NCC3CCCCC3)C2CN1Cc1cccc2ccccc12 (stereo partly drawn) [ID-16, (7R)-7-benzyl-N-(cyclohexylmethyl)-9-(naphthalen-1-ylmethyl)-4,8-dioxooctahydropyrimido[1,2-a][1,4]diazepine-1(2H)-carboxamide] | 60.2%
